Laboratory results as given in PubChem BioAssay AID248 (DTP/NCI, 2004).
“And” between values parts separate entries of the source, which are not always exact repeats. Identical values can stand only once. Toxic doses and inconclusive results are not listed. Rule as the data show it: active = T/C of 150% or more; inactive = T/C below 125%.

Tested on: L1210 leukemia ip in BDF1 mice, survival T/C
Assay: NCI In Vivo Anticancer Drug Screen. Data for tumor model L1210 Leukemia (intraperitoneal) in B6D2F1 (BDF1) mice
Conditions: endpoint: mean survival time, higher = longer survival
Method in brief: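 Tumor cells were implanted, animals were treated, and survival was followed. The result divides the treated measurement by the vehicle-control measurement.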

[1] = dose: 100.0 mg/kg/injection, schedule: Q01DX001 (ip), vehicle: saline
[2] = dose: 200.0 mg/kg/injection, schedule: Q01DX001 (ip), vehicle: saline
[3] = dose: 400.0 mg/kg/injection, schedule: Q01DX001 (ip), vehicle: saline
[4] = dose: 100.0 mg/kg/injection, schedule: Q01DX009 (ip), vehicle: saline with Tween-80
[5] = dose: 100.0 mg/kg/injection, schedule: Q04DX003 (ip), vehicle: saline with Tween-80
[6] = dose: 200.0 mg/kg/injection, schedule: Q01DX009 (ip), vehicle: saline with Tween-80
[7] = dose: 200.0 mg/kg/injection, schedule: Q04DX003 (ip), vehicle: saline with Tween-80
[8] = dose: 400.0 mg/kg/injection, schedule: Q04DX003 (ip), vehicle: saline with Tween-80
[9] = dose: 50.0 mg/kg/injection, schedule: Q04DX003 (ip), vehicle: saline with Tween-80
[10] = dose: 100.0 mg/kg/injection, schedule: Q04DX003 (ip), vehicle: saline
[11] = dose: 200.0 mg/kg/injection, schedule: Q04DX003 (ip), vehicle: saline
[12] = dose: 50.0 mg/kg/injection, schedule: Q01DX009 (ip), vehicle: saline with Tween-80

Measured: T/C

COc1cc(N)ccn1
inactive: dose: 100.0 mg/kg/injection, schedule: Q04DX003 (ip), vehicle: acetone 95 % of control | dose: 200.0 mg/kg/injection, schedule: Q04DX003 (ip), vehicle: acetone 94 % of control | dose: 400.0 mg/kg/injection, schedule: Q04DX003 (ip), vehicle: acetone 94 % of control

C=CC(C)NC(=S)NNC(=S)NC (stereo unspecified)
inactive: dose: 15.0 mg/kg/injection, schedule: Q01DX015 (ip), vehicle: carboxymethylcellulose (CMC) 95 % of control | dose: 30.0 mg/kg/injection, schedule: Q01DX015 (ip), vehicle: carboxymethylcellulose (CMC) 104 % of control | dose: 50.0 mg/kg/injection, schedule: Q01DX001 (ip), vehicle: carboxymethylcellulose (CMC) 104 % of control | dose: 60.0 mg/kg/injection, schedule: Q01DX015 (ip), vehicle: carboxymethylcellulose (CMC) 95 % of control | dose: 100.0 mg/kg/injection, schedule: Q01DX001 (ip), vehicle: carboxymethylcellulose (CMC) 105 % of control | dose: 120.0 mg/kg/injection, schedule: Q01DX015 (ip), vehicle: carboxymethylcellulose (CMC) 98 % of control | dose: 200.0 mg/kg/injection, schedule: Q01DX001 (ip), vehicle: carboxymethylcellulose (CMC) 109 % of control | dose: 240.0 mg/kg/injection, schedule: Q01DX015 (ip), vehicle: carboxymethylcellulose (CMC) 87 % of control and 89 % of control

O=S(=O)(O)c1ccc(O)c2ncccc12.[Zn+2]
inactive: dose: 50.0 mg/kg/injection, schedule: Q01DX001 (ip), vehicle: saline 100 % of control | [1] 97 % of control | [2] 97 % of control | [3] 100 % of control

Cc1ccccc1OCCCCCl
inactive: [4] 95 % of control | [5] 97 % of control | [6] 88 % of control | [7] 92 % of control | dose: 400.0 mg/kg/injection, schedule: Q01DX009 (ip), vehicle: saline with Tween-80 89 % of control | [8] 100 % of control

CCOC1c2ccccc2-c2ccccc2N1C(=O)c1ccccc1 (stereo unspecified)
inactive: [9] 98 % of control | [5] 106 % of control | [7] 97 % of control and 109 % of control | [8] 103 % of control

Cc1cccnc1C(=O)O
inactive: [9] 94 % of control | [1] 94 % of control | [5] 95 % of control | [2] 94 % of control | [7] 91 % of control

CCC(OC(=O)Nc1ccc(S(=O)(=O)NC2CCCCC2)cc1)c1ccco1 (stereo unspecified)
inactive: [1] 94 % of control | [2] 88 % of control | [3] 91 % of control

N#[N+]c1nc2ncnc(N)c2[nH]1
inactive: dose: 12.5 mg/kg/injection, schedule: Q01DX Z (ip), vehicle: saline 107 % of control | dose: 25.0 mg/kg/injection, schedule: Q01DX Z (ip), vehicle: saline 114 % of control

Nc1nc(N=Nc2ccc(O)cc2)cc(=O)[nH]1
inactive: dose: 50.0 mg/kg/injection, schedule: Q01DX009 (ip), vehicle: other 102 % of control | dose: 100.0 mg/kg/injection, schedule: Q01DX009 (ip), vehicle: other 107 % of control | dose: 100.0 mg/kg/injection, schedule: Q04DX002 (ip), vehicle: other 105 % of control | dose: 200.0 mg/kg/injection, schedule: Q01DX009 (ip), vehicle: other 94 % of control | dose: 200.0 mg/kg/injection, schedule: Q04DX002 (ip), vehicle: other 105 % of control | dose: 400.0 mg/kg/injection, schedule: Q01DX009 (ip), vehicle: other 103 % of control | dose: 400.0 mg/kg/injection, schedule: Q04DX002 (ip), vehicle: other 99 % of control

Cn1ncc2c1NC(c1ccc(F)cc1)SCC2=O (stereo unspecified)
inactive: dose: 400.0 mg/kg/injection, schedule: Q01DX009 (ip), vehicle: gum acacia 108 % of control

O=C(COc1ccc(Cl)c(Cl)c1)Nc1ccc[n+](Cc2cc(Cl)ccc2S(=O)(=O)F)c1
inactive: [1] 97 % of control | [2] 105 % of control | [3] 94 % of control

O=C(N/N=C/c1ccc2c(c1)CCC2)c1cccc(O)c1
inactive: dose: 100.0 mg/kg/injection, schedule: Q04DX003 (ip), vehicle: Klucel (hydroxypropylcellulose) (HPC) 96 % of control | dose: 200.0 mg/kg/injection, schedule: Q04DX003 (ip), vehicle: Klucel (hydroxypropylcellulose) (HPC) 95 % of control | dose: 400.0 mg/kg/injection, schedule: Q04DX003 (ip), vehicle: Klucel (hydroxypropylcellulose) (HPC) 91 % of control

C=C(C)C#CCN(CCO)C(C)C
inactive: dose: 75.0 mg/kg/injection, schedule: Q01DX001 (ip), vehicle: other 96 % of control | dose: 150.0 mg/kg/injection, schedule: Q01DX001 (ip), vehicle: other 96 % of control

Nc1ncnc2c1ncn2CCCCl
inactive: dose: 50.0 mg/kg/injection, schedule: Q01DX009 (ip), vehicle: saline 100 % of control | dose: 100.0 mg/kg/injection, schedule: Q01DX009 (ip), vehicle: saline 100 % of control | [10] 90 % of control | dose: 200.0 mg/kg/injection, schedule: Q01DX009 (ip), vehicle: saline 92 % of control | [11] 106 % of control

NC(N)=N/N=C/c1cc([N+](=O)[O-])ccc1OCC(=O)O
inactive: dose: 60.0 mg/kg/injection, schedule: Q01DX Z (oral), vehicle: methylcellulose (MC) 98 % of control | dose: 120.0 mg/kg/injection, schedule: Q01DX Z (oral), vehicle: methylcellulose (MC) 98 % of control | dose: 240.0 mg/kg/injection, schedule: Q01DX Z (ip), vehicle: methylcellulose (MC) 95 % of control | dose: 240.0 mg/kg/injection, schedule: Q01DX Z (oral), vehicle: methylcellulose (MC) 115 % of control | dose: 360.0 mg/kg/injection, schedule: Q01DX Z (ip), vehicle: methylcellulose (MC) 93 % of control | dose: 480.0 mg/kg/injection, schedule: Q01DX Z (ip), vehicle: methylcellulose (MC) 100 % of control | dose: 480.0 mg/kg/injection, schedule: Q01DX Z (oral), vehicle: methylcellulose (MC) 102 % of control

Cc1cc(C)c([S-])c(C)c1.[Cu+]
inactive: dose: 18.8 mg/kg/injection, schedule: Q01DX001 (ip), vehicle: saline 98 % of control

NCC(OC1CCCCC1)C(Cl)(Cl)Cl (stereo unspecified)
inactive: [12] 92 % of control | [4] 97 % of control

NC(N)=NN=C1c2ccccc2-c2ccccc21
inactive: dose: 1.0 mg/kg/injection, schedule: Q01DX Z (ip), vehicle: methylcellulose (MC) 107 % of control | dose: 2.0 mg/kg/injection, schedule: Q01DX Z (ip), vehicle: methylcellulose (MC) 102 % of control | dose: 4.0 mg/kg/injection, schedule: Q01DX Z (ip), vehicle: methylcellulose (MC) 103 % of control | dose: 4.0 mg/kg/injection, schedule: Q01DX Z (oral), vehicle: methylcellulose (MC) 95 % of control | dose: 8.0 mg/kg/injection, schedule: Q01DX Z (ip), vehicle: methylcellulose (MC) 107 % of control | dose: 16.0 mg/kg/injection, schedule: Q01DX Z (oral), vehicle: methylcellulose (MC) 107 % of control

COc1cc2c(cc1O)C(=O)CCC2
inactive: [12] 107 % of control | [4] 96 % of control | [6] 93 % of control

CC1(C)N=C2OCCN2C1=O
inactive: dose: 12.5 mg/kg/injection, schedule: Q04DX003 (ip), vehicle: saline 101 % of control | dose: 25.0 mg/kg/injection, schedule: Q04DX003 (ip), vehicle: saline 111 % of control | dose: 50.0 mg/kg/injection, schedule: Q04DX003 (ip), vehicle: saline 93 % of control | [10] 101 % of control | [11] 98 % of control and 102 % of control | dose: 300.0 mg/kg/injection, schedule: Q04DX003 (ip), vehicle: saline 104 % of control
